The numbers were not newly measured in publication PMC12465416 (BMC Infectious Diseases, 2025), which cites them from elsewhere.

The conditions of the data set: IV PMB alone to treat CRGNB pneumonia.

Where a name gives a salt, the structure may show the parent alone. Where a SMILES comes first, the peptide text is derived from it. Bridges are numbered along the chain shown (N, C = ends). [ ]: non-standard residue; d: D form. The star is where a group is joined. X1 = CC[C@H](C)CCCCC(=O)*; Dab = NCC[C@H](N)C(=O)O

For the molecule `CC[C@H](C)CCCCC(=O)N[C@@H](CCN)C(=O)N[C@H](C(=O)N[C@@H](CCN)C(=O)N[C@H]1CCNC(=O)[C@H]([C@@H](C)O)NC(=O)[C@H](CCN)NC(=O)[C@H](CCN)NC(=O)[C@H](CC(C)C)NC(=O)[C@@H](Cc2ccccc2)NC(=O)[C@H](CCN)NC1=O)[C@@H](C)O` [PMB, polymyxin B sulfate] (X1-[Dab]T[Dab][Dab][Dab][dF]L[Dab][Dab]T; lactam 4-C), the “drug concentrations in ELF compared with those in plasma” value is “significantly lower”.
